Source: ChEMBL document CHEMBL1221343, “Caelestines A-D, brominated quinolinecarboxylic acids from the Australian ascidian Aplidium caelestis” (J Nat Prod, 2010)
Activity calls are given as the source filed them. The calls are words filed in the database; no cut-off is given here.

What was measured:
MCF7 = experiment: Cytotoxicity against human MCF7 cells at 100 uM; type: functional
MM96L = experiment: Cytotoxicity against human MM96L cells at 100 uM; type: functional
[1] = Cytotoxicity against human NFF cells at 100 uM; type: cell-based; details: read-out: INH
Staphylococcus aureus [2] = experiment: Antimicrobial activity against multidrug-resistant Staphylococcus aureus ATCC 43300 at 0.1 to 10 mM after 20 hrs by CLSI broth microdilution method; type: functional, organism-based
Staphylococcus aureus [3] = experiment: Antimicrobial activity against methicillin-sensitive Staphylococcus aureus ATCC 25923 at 0.1 to 10 mM after 20 hrs by CLSI broth microdilution method; type: functional, organism-based
Escherichia coli = experiment: Antimicrobial activity against Escherichia coli ATCC 25922 at 0.1 to 10 mM after 20 hrs by CLSI broth microdilution method; type: functional, organism-based
Enterococcus faecalis = experiment: Antimicrobial activity against Enterococcus faecalis ATCC 19433 at 0.1 to 10 mM after 20 hrs by CLSI broth microdilution method; type: functional, organism-based
Pseudomonas aeruginosa = experiment: Antimicrobial activity against Pseudomonas aeruginosa NCTC 10662 at 0.1 to 10 mM after 20 hrs by CLSI broth microdilution method; type: functional, organism-based
Candida albicans = experiment: Antimicrobial activity against Candida albicans ATCC 10231 at 0.1 to 10 mM after 20 hrs by CLSI broth microdilution method; type: functional, organism-based

SMILES	inhibition at 100 µM (MCF7)	inhibition at 100 µM (MM96L)	cytotoxicity at 100 µM [1]	Activity (Staphylococcus aureus [2])	Activity (Staphylococcus aureus [3])	Activity (Escherichia coli)	Activity (Enterococcus faecalis)	Activity (Pseudomonas aeruginosa)	Activity (Candida albicans)
COc1c(Br)c(Br)cc2c(=O)cc(C(=O)O)[nH]c12	38%	52%	68%	inactive	inactive	inactive	inactive	inactive	inactive
O=C(O)c1cc(O)c2ccc(Br)cc2n1	39%	62%	57%	inactive	inactive	inactive	inactive	inactive	inactive
O=C(O)c1cc(=O)c2cc(Br)c(Br)cc2[nH]1	49%	69%	66%	inactive	inactive	inactive	inactive	inactive	inactive
COc1cc(Br)cc2c(=O)cc(C(=O)O)[nH]c12	40%	54%	58%	inactive	inactive	inactive	inactive	inactive	inactive
